# Assay results as given in PMC10482350, “Nucleoside diphosphate kinases 1 and 2 regulate a protective liver response to a high-fat diet” (Science Advances, 2023).
# B1: nucleoside diphosphate kinase 1 (NME1), recombinant murine (enzyme, mouse, UniProt P15532 1-152, looked up)
# chain: MANSERTFIAIKPDGVQRGLVGEIIKRFEQKGFRLVGLKFLQASEDLLKEHYTDLKDRPFFTGLVKYMHSGPVVAMVWEGLNVVKTGRVMLGETNPADSKPGTIRGDFCIQVGRNIIHGSDSVKSAEKEISLWFQPEELVEYKSCAQNWIYE
# notes: also called NDPK 1; WT NME1; source: E. coli BL21-Gold(D3), purified (HisTrap, TEV cleavage, Superdex 200 SEC); not shown: His6, N-terminal, cleaved
# What was measured:
# NME1 [1] = target: T1, NME1 (Mus musculus, UniProt P15532); experiment: histidine phosphorylation (native gel, native MS); release of NME1 from CoA beads; type: biochemical; design: full-length recombinant
# NME2 = target: T2, NME2 (Mus musculus, UniProt Q01768); experiment: CoA-agarose pull-down of GST-NME2 from bacterial extract; type: cell-based
# T2 construct: full-length, GST-tagged
# NME1 [2] = target: T1, NME1; experiment: ITC; crystal structure ([…] Å), native MS, nanoDSF; type: binding; design: full-length, His-tag cleaved by TEV
# NME1 [3] = target: T1, NME1; experiment: dephosphorylation of phosphohistidine NME1 (immunoblot); type: biochemical; design: full-length recombinant
# [4] = target: the molecule itself; experiment: native MS; recombinant purified NME1 without ligand or incubated with CoA, AcCoA, SucCoA, dephospho-CoA or ATP; charge states +22 and +21 of the hexamer; methods in the Supplementary Materials
# T2 sequence (Q01768 whole entry): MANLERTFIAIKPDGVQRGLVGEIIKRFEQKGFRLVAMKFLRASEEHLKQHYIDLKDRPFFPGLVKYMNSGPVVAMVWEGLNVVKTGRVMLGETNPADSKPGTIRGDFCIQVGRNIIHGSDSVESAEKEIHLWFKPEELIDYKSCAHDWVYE
molecule,measurement,setting,value
Nc1ncnc2c1ncn2[C@@H]1O[C@H](COP(=O)(O)OP(=O)(O)OP(=O)(O)O)[C@@H](O)[C@H]1O [ATP],"histidine phosphorylation (native gel, native MS); release of NME1 from CoA bead",NME1 [1],recombinant murine NME1 purified from bacteria could be phosphorylated by ATP and subsequently dephosphorylated by ADP or guanosine diphosphate (GDP)
CC(C)(COP(=O)(O)OP(=O)(O)OC[C@H]1O[C@@H](n2cnc3c(N)ncnc32)[C@H](O)[C@@H]1OP(=O)(O)O)[C@@H](O)C(=O)NCCC(=O)NCCS [CoA],CoA-agarose pull-down of GST-NME2 from bacterial extract,NME2,NME2 exhibits an ATP-sensitive CoA binding activity comparable to that of NME1 (fig. S11A)
same,Kd,NME1 [2],~18 µM
Nc1nc2c(ncn2[C@@H]2O[C@H](CO[P@](=O)(O)OP(=O)(O)O)[C@@H](O)[C@H]2O)c(=O)[nH]1 [GDP],dephosphorylation of phosphohistidine NME1 (immunoblot),NME1 [3],phosphorylated by ATP and subsequently dephosphorylated by ADP or guanosine diphosphate (GDP)
B1,stoichiometry N,[4],6
